Columns and labels:
[1] = Aqueous stability of the compound in acetate buffer at pH 4 assessed as compound half life measured after 24 hrs by UPLC analysis; type: physicochemical; conditions: buffer, pH 4, 24 h, 24 h
[2] = Aqueous stability of the compound in phosphate buffer at pH 6.5 assessed as compound half life measured after 24 hrs by UPLC analysis; type: physicochemical; conditions: buffer, pH 6.5, 24 h, 24 h
[3] = Aqueous solubility of compound at pH 1 by UPLC analysis; type: physicochemical; conditions: buffer
[4] = Aqueous solubility of compound at pH 4 by UPLC analysis; type: physicochemical; conditions: buffer
[5] = Cmax in Sprague-Dawley rat at 3 ml/kg,po measured upto 24 hrs by UPLC-MS/MS analysis; type: ADME; design: dose 3 ml/kg, time < 24 hrs, route po; conditions: in vivo
[6] = Tmax in Sprague-Dawley rat at 3 ml/kg,po measured upto 24 hrs by UPLC-MS/MS analysis; type: ADME; conditions: in vivo
[7] = AUClast in Sprague-Dawley rat at 3 ml/kg,po measured upto 24 hrs by UPLC-MS/MS analysis; type: ADME; design: time < 24 hrs, dose 3 ml/kg, route po; conditions: in vivo
[8] = Relative Cmax ratio of Atazanavir in Sprague-Dawley rat at 3 ml/kg,po measured upto 24 hrs by UPLC-MS/MS analysis; type: ADME; conditions: in vivo
[9] = Relative AUC ratio of Atazanavir in Sprague-Dawley rat at 3 ml/kg,po measured upto 24 hrs by UPLC-MS/MS analysis; type: ADME; conditions: in vivo
[10] = Fold ratio of total AUC of Atazanavir in Sprague-Dawley rat at 3 ml/kg,po measured upto 24 hrs by UPLC-MS/MS analysis; type: ADME; conditions: in vivo
[11] = Ratio of Cmax/Cmin of Atazanavir in Sprague-Dawley rat at 3 ml/kg,po measured after 24 hrs by UPLC-MS/MS analysis; type: ADME; conditions: in vivo
[12] = Ratio of AUC of Atazanavir in Sprague-Dawley rat at 3 ml/kg,po measured upto 24 hrs by UPLC-MS/MS analysis; type: ADME; conditions: in vivo
[13] = target: T1, UDP-glucuronosyltransferase 1A1 (Homo sapiens, UniProt P22309); assay: Inhibition of human recombinant UGT1A1 using bilirubin as substrate incubated for 40 mins by LC-MS/MS analysis
T1 sequence (P22309 whole entry): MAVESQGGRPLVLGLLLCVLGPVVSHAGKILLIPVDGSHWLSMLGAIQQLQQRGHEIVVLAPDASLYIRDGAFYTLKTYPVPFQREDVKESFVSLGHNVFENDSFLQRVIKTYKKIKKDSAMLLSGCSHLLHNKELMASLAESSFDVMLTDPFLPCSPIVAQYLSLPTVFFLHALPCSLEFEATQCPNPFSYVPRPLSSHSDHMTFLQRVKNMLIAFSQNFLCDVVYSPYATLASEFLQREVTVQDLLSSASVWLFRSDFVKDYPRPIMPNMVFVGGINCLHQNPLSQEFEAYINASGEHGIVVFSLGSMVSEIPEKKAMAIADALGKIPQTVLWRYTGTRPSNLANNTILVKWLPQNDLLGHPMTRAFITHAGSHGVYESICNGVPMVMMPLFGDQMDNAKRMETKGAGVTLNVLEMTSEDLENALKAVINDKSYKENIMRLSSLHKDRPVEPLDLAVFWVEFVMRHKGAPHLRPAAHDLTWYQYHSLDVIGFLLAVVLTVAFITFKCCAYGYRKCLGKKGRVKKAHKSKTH

[14] = target: T1, UDP-glucuronosyltransferase 1A1; assay: Inhibition of UGT1A1 in human liver microsomes using beta-estradiol as substrate incubated for 40 mins by LC-MS/MS analysis; design: species or system Microsome
[15] = Cmax in Sprague-Dawley rat at 25 ml/kg,po measured upto 24 hrs by UPLC-MS/MS analysis; type: ADME; design: time < 24 hrs, dose 25 ml/kg, route po; conditions: in vivo
[16] = Tmax in Sprague-Dawley rat at 25 ml/kg,po measured upto 24 hrs by UPLC-MS/MS analysis; type: ADME; conditions: in vivo
[17] = AUClast in Sprague-Dawley rat at 25 ml/kg,po measured upto 24 hrs by UPLC-MS/MS analysis; type: ADME; design: time < 24 hrs, dose 25 ml/kg, route po; conditions: in vivo
[18] = Relative Cmax ratio of Atazanavir in Sprague-Dawley rat at 25 ml/kg,po measured upto 24 hrs by UPLC-MS/MS analysis; type: ADME; conditions: in vivo
[19] = Relative AUC ratio of Atazanavir in Sprague-Dawley rat at 25 ml/kg,po measured upto 24 hrs by UPLC-MS/MS analysis; type: ADME; conditions: in vivo
[20] = Fold ratio of total AUC of Atazanavir in Sprague-Dawley rat at 25 ml/kg,po measured upto 24 hrs by UPLC-MS/MS analysis; type: ADME; conditions: in vivo
[21] = Ratio of Cmax/Cmin of Atazanavir in Sprague-Dawley rat at 25 ml/kg,po measured after 24 hrs by UPLC-MS/MS analysis; type: ADME; conditions: in vivo
[22] = Ratio of AUC of Atazanavir in Sprague-Dawley rat at 25 ml/kg,po measured upto 24 hrs by UPLC-MS/MS analysis; type: ADME; conditions: in vivo
[23] = Cmax in Sprague-Dawley rat at 1 ml/kg,iv measured upto 24 hrs by UPLC-MS/MS analysis; type: ADME; design: dose 1 ml/kg, time < 24 hrs, route iv; conditions: in vivo
[24] = AUClast in Sprague-Dawley rat at 1 ml/kg,iv measured upto 24 hrs by UPLC-MS/MS analysis; type: ADME; design: dose 1 ml/kg, time < 24 hrs, route iv; conditions: in vivo
[25] = Clearance in Sprague-Dawley rat at 1 ml/kg,iv measured upto 24 hrs by UPLC-MS/MS analysis; type: ADME; conditions: in vivo
[26] = Half life in Sprague-Dawley rat at 1 ml/kg,iv measured upto 24 hrs by UPLC-MS/MS analysis; type: ADME; conditions: in vivo
[27] = Volume of distribution at steady state in Sprague-Dawley rat at 1 ml/kg,iv measured upto 24 hrs by UPLC-MS/MS analysis; type: ADME; conditions: in vivo, read-out: Vdss
[28] = Relative Cmax ratio of Atazanavir in Sprague-Dawley rat at 1 ml/kg,iv measured upto 24 hrs by UPLC-MS/MS analysis; type: ADME; conditions: in vivo
[29] = Relative AUC ratio of Atazanavir in Sprague-Dawley rat at 1 ml/kg,iv measured upto 24 hrs by UPLC-MS/MS analysis; type: ADME; conditions: in vivo
[30] = Fold ratio of total AUC of Atazanavir in Sprague-Dawley rat at 1 ml/kg,iv measured upto 24 hrs by UPLC-MS/MS analysis; type: ADME; conditions: in vivo
[31] = Ratio of Cmax/Cmin of Atazanavir in Sprague-Dawley rat at 1 ml/kg,iv measured after 24 hrs by UPLC-MS/MS analysis; type: ADME; conditions: in vivo
[32] = Ratio of AUC of Atazanavir in Sprague-Dawley rat at 1 ml/kg,iv measured upto 24 hrs by UPLC-MS/MS analysis; type: ADME; conditions: in vivo
[33] = target: Voltage-gated inwardly rectifying potassium channel KCNH2 (Homo sapiens, UniProt Q12809); assay: Inhibition of human ERG by patch-clamp assay; type: toxicity
[34] = Cmax in Sprague-Dawley rat at 30 ml/kg,po measured upto 24 hrs by UPLC-MS/MS analysis; type: ADME; design: time < 24 hrs, dose 30 ml/kg, route po; conditions: in vivo
[35] = Tmax in Sprague-Dawley rat at 30 ml/kg,po measured upto 24 hrs by UPLC-MS/MS analysis; type: ADME; conditions: in vivo
[36] = AUClast in Sprague-Dawley rat at 30 ml/kg,po measured upto 24 hrs by UPLC-MS/MS analysis; type: ADME; design: time < 24 hrs, dose 30 ml/kg, route po; conditions: in vivo
[37] = Relative Cmax ratio of Atazanavir in Sprague-Dawley rat at 30 ml/kg,po measured upto 24 hrs by UPLC-MS/MS analysis; type: ADME; conditions: in vivo
[38] = Relative AUC ratio of Atazanavir in Sprague-Dawley rat at 30 ml/kg,po measured upto 24 hrs by UPLC-MS/MS analysis; type: ADME; conditions: in vivo
[39] = Fold ratio of total AUC of Atazanavir in Sprague-Dawley rat at 30 ml/kg,po measured upto 24 hrs by UPLC-MS/MS analysis; type: ADME; conditions: in vivo
[40] = Ratio of Cmax/Cmin of Atazanavir in Sprague-Dawley rat at 30 ml/kg,po measured after 24 hrs by UPLC-MS/MS analysis; type: ADME; conditions: in vivo
[41] = Ratio of AUC of Atazanavir in Sprague-Dawley rat at 30 ml/kg,po measured upto 24 hrs by UPLC-MS/MS analysis; type: ADME; conditions: in vivo

Sequence of Voltage-gated inwardly rectifying potassium channel KCNH2 (Q12809 whole entry): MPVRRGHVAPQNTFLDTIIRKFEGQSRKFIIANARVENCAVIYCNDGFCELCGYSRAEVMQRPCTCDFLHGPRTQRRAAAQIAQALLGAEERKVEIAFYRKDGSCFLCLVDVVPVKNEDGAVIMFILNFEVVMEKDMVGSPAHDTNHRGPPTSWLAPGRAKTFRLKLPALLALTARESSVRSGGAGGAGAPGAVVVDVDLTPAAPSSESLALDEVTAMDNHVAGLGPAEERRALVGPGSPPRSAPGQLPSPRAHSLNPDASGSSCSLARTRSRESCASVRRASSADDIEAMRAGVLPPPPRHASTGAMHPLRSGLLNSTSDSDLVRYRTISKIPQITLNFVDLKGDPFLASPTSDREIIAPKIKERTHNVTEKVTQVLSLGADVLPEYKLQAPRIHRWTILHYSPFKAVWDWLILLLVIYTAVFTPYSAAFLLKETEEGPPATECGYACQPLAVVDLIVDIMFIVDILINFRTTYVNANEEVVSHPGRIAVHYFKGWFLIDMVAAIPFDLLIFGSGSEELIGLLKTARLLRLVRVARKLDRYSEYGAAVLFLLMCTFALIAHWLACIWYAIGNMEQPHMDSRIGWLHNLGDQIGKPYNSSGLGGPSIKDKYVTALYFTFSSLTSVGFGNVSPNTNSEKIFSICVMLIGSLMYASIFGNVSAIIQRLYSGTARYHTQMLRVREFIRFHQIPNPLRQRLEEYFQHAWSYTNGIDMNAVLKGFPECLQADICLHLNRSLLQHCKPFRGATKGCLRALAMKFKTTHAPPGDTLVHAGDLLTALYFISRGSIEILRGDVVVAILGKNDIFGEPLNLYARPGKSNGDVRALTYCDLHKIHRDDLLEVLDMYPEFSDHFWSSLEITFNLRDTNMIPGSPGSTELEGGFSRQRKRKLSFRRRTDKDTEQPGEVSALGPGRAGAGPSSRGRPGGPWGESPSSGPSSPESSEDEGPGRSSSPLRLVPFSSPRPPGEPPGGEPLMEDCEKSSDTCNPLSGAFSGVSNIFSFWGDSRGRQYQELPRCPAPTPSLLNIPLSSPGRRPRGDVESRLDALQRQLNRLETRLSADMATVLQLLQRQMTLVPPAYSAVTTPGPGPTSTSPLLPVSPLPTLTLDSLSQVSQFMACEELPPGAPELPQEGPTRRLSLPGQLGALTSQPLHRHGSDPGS

SMILES | t1/2 [1] [h] | t1/2 [2] [h] | solubility [3] [µg/mL] | solubility [4] [µg/mL] | Ratio [8] | Ratio [9] | Ratio [10] | Ratio [11] | Ratio [12] | Cmax [23] [nM] | AUC(0-t) at 24 h [24] [µM·h] | clearance [25] [mL/min/kg] | half-life [26] [h] | Vd [27] [L/kg] | Ratio [28] | Ratio [29] | Ratio [30] | Ratio [31] | Ratio [32] | also measured
COC(=O)N[C@H](C(=O)N[C@@H](Cc1ccccc1)[C@H](CN(Cc1ccc(-c2ccccn2)cc1)NC(=O)[C@@H](NC(=O)OC)C(C)(C)C)OC(=O)OC(OC(=O)[C@H](N)C(C)C)C(C)C)C(C)(C)C (stereo in doubt; 5j) | 334.3 | 15.3 | > 1900 | > 1900 | 8.2 | 17.7 | 18 | 86.9 | 0.02 | 371 | 0.356 | 47 | 4 | 7.7 | 1.01 | 7.3 | 7.8 | 431.7 | 0.08 | Cmax ([5]; 24 h): 93 nM; Tmax ([6]; po, 24 h): 0.4 h; AUClast ([7]; 24 h): 0.12 µM·h; IC50 [13]: 1000 nM; IC50 [14]: 2100 nM; Cmax [15]: 123 nM; Tmax [16]: 2.3 h; AUC(0-t) at 24 h [17]: 1.23 µM·h; Ratio [18]: 1; Ratio [19]: 1.88; Ratio [20]: 1.94; Ratio [21]: 27.8; Ratio [22]: 0.03; IC50 [33]: 8800 nM
COC(=O)N[C@H](C(=O)N[C@@H](Cc1ccccc1)[C@H](CN(Cc1ccc(-c2ccccn2)cc1)NC(=O)[C@@H](NC(=O)OC)C(C)(C)C)OC(=O)OC(OC(=O)[C@@H](NC(=O)[C@H](N)C(C)C)C(C)C)C(C)C)C(C)(C)C (stereo in doubt; 6h) | 334.3 | 9.2 | > 2000 | > 1300 | 1 | 7.3 | 111.7 | 6.4 | 14.4 | 2180 | 10.5 | 2 | 7 | 1 | 0.11 | 2.3 | 18.8 | 22.8 | 7.31 | Cmax ([5]; Sprague-Dawley, 3 ml/kg): 3060 nM; Tmax ([6]; Sprague-Dawley, read-out: Tmax): 3 h; AUC(0-t) at 24 h ([7]; Sprague-Dawley, 3 ml/kg): 40.1 µM·h; Cmax [34]: 4130 nM; Tmax [35]: 3 h; AUC(0-t) at 24 h [36]: 68.3 µM·h; Ratio [37]: 0.08; Ratio [38]: 0.29; Ratio [39]: 3.56; Ratio [40]: 5.8; Ratio [41]: 11.46
